Laboratory results published in patent EP4349409A1, “COMPOUNDS FOR THE MANAGEMENT OF CELL STEMNESS AND INVASION IN CANCER AND RELATED DISEASES” (Instituto Biomar S.A., priority 2022, dated 2024).
Read-outs that look alike come from different tables or passages of the source.

Assays:
T98G = experiment: MTT-based cytotoxicity assay, T98G; assay type: cell-based; settings: Homo sapiens, 72 h
Description: (§1) A dose-response analysis of BMT9 (concentrations ranging from 4.5 µM-18 µM), BCNU (from 150 µM-500 µM) and TMZ (350 µM-700 µM) was performed in two conventional glioblastoma cell lines (T98G, U373) and the GNS cell line G144 by MTT-based cytotoxicity assays (Figure 5A-D). Cells were seeded on p96-well plates and treated with the different compounds for 72 h. Then, the MTT reagent (3-(4,5-Dimethyl-2-thiazolyl)-2,5-diphenyl-2H-tetrazolium bromide diluted in PBS to a concentration of 1mg/ml), was added to each well to a final concentration of 0.33mg/ml, and incubated for 3 h at 37°C. After that, the media was removed, and formazan crystals were solubilized with DMSO. Absorbance was measured at 560 nm using a "Synergy HT" plate reader (Biotek). In the graphs, the Y axis represents the percentage of cell viability relative to non-treated cells. The IC50, when reached are marked by a rectangle. DMSO treatment had no effect on cell viability.

U373 = experiment: MTT-based cytotoxicity assay, U373; assay type: cell-based; settings: Homo sapiens, U373 MG, 72 h
Description: as §1

G144 [1] = settings: called 'known'; cell line not stated, used in G144 parental and resistant clone experiment; cited from earlier work
G144 [2] = experiment: MTT-based cytotoxicity assay, G144; assay type: cell-based, human; settings: Homo sapiens, 72 h, G144, MTT
Description: as §1
Previous studies have reported that the molecular signature of the GNSC G144 cell line corresponds to a 'proneural' subtype of GB with NSC features (Pollard et al., 2009; Danovi et al., 2013). Thus, to test BMT9 specificity we compared cellular viability when treating CD133-positive cells (either GNSCs or normal human fetal neural stem cells-NSC) versus CD133-negative human embryonic fibroblast (HEFs) (Figure 8A). MTT-based cytotoxicity assay (Figure 7B-D) were performed as previously described.
While the first line therapy of gliomas has proven its effectiveness and improved clinical outcomes, acquired chemoresistance to alkylating agents has been identified as a major cause of treatment failure (Sarkaria et al., 2008). In a murine model of GB, long-term treatment with subtoxic TMZ doses enriched the side population of cancer stem cells, increasing the tumor aggressiveness (Bleau et al., 2009). Thus, we generated TMZ-resistant G144-clones that were selected upon treatment with TMZ either at 500 µM or 700 µM for several months (R500 and R700, respectively). The obtained clones maintained CD133 stem marker expression (Figure 9A). We then analyzed BMT9 dose-dependent effect on cell viability, by MTT assay, comparing the resistant clones to parental cells.

GNSCs = experiment: MTT assay of BMT9 analogues against GNSCs; assay type: cell-based; settings: 48 and 72 h
Description: as §1
The cytotoxicity of two BMT9 analogues synthetized by Instituto Biomar S.A. was evaluated by MTT assays.

P1-TP73 promoter = experiment: P1-p73-Fluc-DsRed reporter validation in HCT116 p53-/- cells; assay type: cell-based, human; settings: HCT116 p53-/- cells transfected with P1-p73-FlucDsRed vector, cultured with Doxo, 24 and 48 hours
From the text: A bimodal reporter vector, named P1-p73-Fluc-DsRed2, was engineered based on the previously published lentiviral system LV-CMV-Fluc-dsRed2 (Shah et al., 2008). […] Using this backbone, the CMV promoter was swapped for a 930 bp fragment of the human P1-TP73 promoter contained in the P1-p73-Luc-pGL3-Basic vector (-859 to +71 of TP73 gene) (Seelan et al., 2002) (Figure 1A'). To validate the generated system, we used the HCT116 p53-/- cells in which endogenous TAp73 expression can be induced by the genotoxic drug doxorubicin (Doxo), at RNA and protein levels (Figure 1B and Vossio et al., 2002, respectively). Next, we tested whether the engineered reporter vector could monitor these changes in endogenous TAp73 RNA levels. For this purpose, HCT116 p53-/- cells were either non-transfected (NT) or transfected with P1-p73-FlucDsRed vector and cultured with Doxo (black square fill pattern bar) or without treatment (grey bar) for the indicated time points (Figure 1C), at which the fluorescence levels (DsRed, Y axis) were measured by fluorimetry.
As depicted in Figure 1C, we detected an increase in endogenous P1-promoter activity after 24 and 48 hours of culture […].

O=NN(CCCl)C(=O)NCCCl [BCNU, carmustine, reference compound]
IC50 (T98G): 500 µM | IC50 (U373): 250 µM | IC50 (G144 [1]): 500 µM | IC50 (G144 [2]): 250 µM

C=C1C2CCC(C)(C3COc4c(C=O)c5c(c(OC)c4C3O)C(=O)OC5O)C1CCC2(C)C (stereo not shown) [BMT9.2]
IC50 (GNSCs): ≤ 4.5 µM

C=C1C2CCC(C)(C3COc4c(C=O)c5c(c(OC)c4C3O)C(=O)OC5OC(C)=O)C1CCC2(C)C (stereo not shown) [BMT9.5]
IC50 (GNSCs): ≤ 4.5 µM

COc1cccc2c1C(=O)c1c(O)c3c(c(O)c1C2=O)C[C@@](O)(C(=O)CO)C[C@@H]3O[C@H]1C[C@H](N)[C@H](O)[C@H](C)O1 [Doxo, doxorubicin]
reporter activity (DsRed fluorescence) (P1-TP73 promoter): increase in reporter activity that was sustained after 48 hours
